In the OligoGym collection:
After the bases stand the sugars from the 5' end (letter, count) and the backbone: PS all phosphorothioate, else s phosphorothioate and o phosphodiester by linkage. Methylation of C is not given here. e = 2'-O-(2-methoxyethyl) (MOE); k = constrained ethyl (cEt); d = 2'-deoxy (DNA); m = 2'-O-methyl

Biological target: HSD17B13
Conditions: ASO, HepaRG

GGAGATATAACATTAC (sugars k3 d10 k3, PS)
target mRNA inhibition (0.02 µM): 10% | target mRNA inhibition (0.078 µM): 10% | target mRNA inhibition (0.313 µM): 42% | target mRNA inhibition (1 µM): 70% | target mRNA inhibition (1.25 µM): 68% | target mRNA inhibition (5 µM): 88%

GGAGTGCATCTTAAGA (sugars k3 d9 k3 e1, PS)
target mRNA inhibition (1 µM): 40%

GGAGTGCATCTTAAGA (sugars kkdddddddddkekek, PS)
target mRNA inhibition (1 µM): 34%

GGAGUGCATCTTAAGA (sugars k3 d1 m1 d8 k3, PS)
target mRNA inhibition (1 µM): 32%

GGATAGTGAACATACA (sugars k3 d10 k3, PS)
target mRNA inhibition (1 µM): 62%

GGATATACTGTCCCAG (sugars k3 d10 k3, PS)
target mRNA inhibition (1 µM): 9%

GGATCTAGAACACTTG (sugars k3 d10 k3, PS)
target mRNA inhibition (1 µM): 32%

GGATGTTGACCTCAAA (sugars k3 d10 k3, PS)
target mRNA inhibition (1 µM): 5%

GGATTAATCATGGGAC (sugars k3 d10 k3, PS)
target mRNA inhibition (1 µM): 44%

GGATTAATTCCCTTCC (sugars k3 d10 k3, PS)
target mRNA inhibition (1 µM): 10%

GGATTGCAGAAGAGTA (sugars k3 d10 k3, PS)
target mRNA inhibition (0.02 µM): 0% | target mRNA inhibition (0.078 µM): 13% | target mRNA inhibition (0.313 µM): 47% | target mRNA inhibition (1 µM): 76% | target mRNA inhibition (1.25 µM): 77% | target mRNA inhibition (5 µM): 74%

GGCAAACCTTGAATGA (sugars k3 d10 k3, PS)
target mRNA inhibition (1 µM): 61%

GGCAAATTTGCTGGAA (sugars k3 d10 k3, PS)
target mRNA inhibition (1 µM): 54%

GGCACTAAAGGTTTCT (sugars k3 d10 k3, PS)
target mRNA inhibition (0.02 µM): 0% | target mRNA inhibition (0.078 µM): 26% | target mRNA inhibition (0.313 µM): 41% | target mRNA inhibition (1 µM): 62% | target mRNA inhibition (1.25 µM): 66% | target mRNA inhibition (5 µM): 75%

GGCAGTAAAGTGCTAA (sugars k3 d10 k3, PS)
target mRNA inhibition (1 µM): 62%

GGCAGTTGAAGTTGAT (sugars k3 d10 k3, PS)
target mRNA inhibition (1 µM): 46%

GGCATGGCTACAGATT (sugars k3 d10 k3, PS)
target mRNA inhibition (1 µM): 69%

GGCTAAAATGGTCATC (sugars k3 d10 k3, PS)
target mRNA inhibition (1 µM): 75%

GGCTACAGATTGGAAT (sugars k3 d1 m1 d8 k3, PS)
target mRNA inhibition (1 µM): 40%

GGCTACAGATTGGAAT (sugars k3 d9 k3 e1, PS)
target mRNA inhibition (1 µM): 28%

GGCTAGGGAAATCTTT (sugars k3 d10 k3, PS)
target mRNA inhibition (1 µM): 57%

GGCTATAACTGGAAGG (sugars k3 d10 k3, PS)
target mRNA inhibition (1 µM): 52%

GGCTTATGAAGTTAGT (sugars k3 d10 k3, PS)
target mRNA inhibition (1 µM): 59%

GGGAGGTAGCTTTTGT (sugars kkdddddddddkekek, PS)
target mRNA inhibition (1 µM): 66%

GGGTCCACTTTTGGTG (sugars k3 d10 k3, PS)
target mRNA inhibition (1 µM): 13%

GGTAAGGAATCCCTTC (sugars k3 d10 k3, PS)
target mRNA inhibition (1 µM): 43%

GGTAATTAATCTTGTT (sugars k3 d10 k3, PS)
target mRNA inhibition (1 µM): 58%

GGTCACCTTTCATAAT (sugars k3 d1 m1 d8 k3, PS)
target mRNA inhibition (1 µM): 48%

GGTCACCTTTCATAAT (sugars k3 d9 k3 e1, PS)
target mRNA inhibition (1 µM): 49%

GGTCAGTAGAGAGCAT (sugars k3 d10 k3, PS)
target mRNA inhibition (1 µM): 79%

GGTCATTTAGAATACG (sugars k3 d10 k3, PS)
target mRNA inhibition (1 µM): 39%

GGTGGACTTCAGAGTT (sugars k3 d10 k3, PS)
target mRNA inhibition (1 µM): 26%

GGTGGTAACGGTGATC (sugars k3 d10 k3, PS)
target mRNA inhibition (1 µM): 31%

GTAAATGATGGCAGGA (sugars k3 d10 k3, PS)
target mRNA inhibition (1 µM): 34%

GTAAGCTGAGAGTTCT (sugars k3 d10 k3, PS)
target mRNA inhibition (1 µM): 49%

GTAAGGTAAAGTCTAA (sugars k3 d10 k3, PS)
target mRNA inhibition (1 µM): 37%

GTAAGTATTCCATCTA (sugars k3 d1 m1 d8 k3, PS)
target mRNA inhibition (1 µM): 43%

GTAAGTATTCCATCTA (sugars k3 d9 k3 e1, PS)
target mRNA inhibition (1 µM): 39%

GTAAGTATTCCATCTA (sugars kkdddddddddkekek, PS)
target mRNA inhibition (1 µM): 53%

GTAATAAAGTCCAGAA (sugars k3 d10 k3, PS)
target mRNA inhibition (1 µM): 66%

GTAATAGCCAGTACAG (sugars k3 d9 k3 e1, PS)
target mRNA inhibition (1 µM): 62%

GTAATCACAAGTAAGG (sugars k3 d9 k3 e1, PS)
target mRNA inhibition (1 µM): 56%

GTAATGAGAACAATCT (sugars k3 d10 k3, PS)
target mRNA inhibition (1 µM): 48%

GTAATTGCTATAGTAA (sugars k3 d10 k3, PS)
target mRNA inhibition (1 µM): 33%

GTAATTGGCTCTTGAG (sugars k3 d10 k3, PS)
target mRNA inhibition (1 µM): 44%

GTAAUAGCCAGTACAG (sugars k3 d1 m1 d8 k3, PS)
target mRNA inhibition (1 µM): 62%

GTACAAATTTATGCCA (sugars k3 d10 k3, PS)
target mRNA inhibition (1 µM): 45%

GTAGAATTGTCTGTTA (sugars k3 d10 k3, PS)
target mRNA inhibition (1 µM): 51%

GTAGCTTTTGTCCACC (sugars kkdddddddddkekek, PS)
target mRNA inhibition (1 µM): 34%

GTAGGCTAAACCCTGG (sugars k3 d10 k3, PS)
target mRNA inhibition (1 µM): 62%

GTAGTGTAAGCTGAGA (sugars k3 d10 k3, PS)
target mRNA inhibition (1 µM): 81%

GTATAGCTGCATTTCT (sugars k3 d10 k3, PS)
target mRNA inhibition (1 µM): 35%

GTATAGTATTCTTCAC (sugars k3 d10 k3, PS)
target mRNA inhibition (0.02 µM): 15% | target mRNA inhibition (0.078 µM): 4% | target mRNA inhibition (0.313 µM): 29% | target mRNA inhibition (1 µM): 81% | target mRNA inhibition (1.25 µM): 61% | target mRNA inhibition (5 µM): 86%

GTATAGTTATCTTCTC (sugars k3 d1 m1 d8 k3, PS)
target mRNA inhibition (1 µM): 54%

GTATAGTTATCTTCTC (sugars k3 d10 k3, PS)
target mRNA inhibition (1 µM): 59%

GTATCTTATAAGACTA (sugars k3 d9 k3 e1, PS)
target mRNA inhibition (1 µM): 72%

GTATGTTTATGTAAGC (sugars k3 d9 k3 e1, PS)
target mRNA inhibition (1 µM): 71%

GTATGTTTATGTAAGC (sugars k3 d10 k3, PS)
target mRNA inhibition (0.02 µM): 0% | target mRNA inhibition (0.078 µM): 16% | target mRNA inhibition (0.313 µM): 33% | target mRNA inhibition (1 µM): 80% | target mRNA inhibition (1.25 µM): 77% | target mRNA inhibition (5 µM): 87%

GTATTCCATCTATCAG (sugars k3 d10 k3, PS)
target mRNA inhibition (1 µM): 52%

GTCATAAAAATCGCTG (sugars k3 d10 k3, PS)
target mRNA inhibition (0.02 µM): 25% | target mRNA inhibition (0.078 µM): 34% | target mRNA inhibition (0.313 µM): 51% | target mRNA inhibition (1 µM): 72% | target mRNA inhibition (1.25 µM): 70% | target mRNA inhibition (5 µM): 86%

GTCATTTAGAATACGC (sugars k3 d10 k3, PS)
target mRNA inhibition (1 µM): 46%

GTCCACTTGAATTCTG (sugars k3 d10 k3, PS)
target mRNA inhibition (1 µM): 18%

GTCCAGAATAGAGTTG (sugars k3 d10 k3, PS)
target mRNA inhibition (1 µM): 60%

GTCCAGGTTGAGATAA (sugars k3 d1 m1 d8 k3, PS)
target mRNA inhibition (1 µM): 68%

GTCCAGGTTGAGATAA (sugars k3 d9 k3 e1, PS)
target mRNA inhibition (1 µM): 52%

GTCCAGGTTGAGATAA (sugars kkdddddddddkekek, PS)
target mRNA inhibition (1 µM): 36%

GTCCCAGCATTATTCA (sugars k3 d10 k3, PS)
target mRNA inhibition (1 µM): 21%

GTCCTAGGGAGGAGGT (sugars k3 d10 k3, PS)
target mRNA inhibition (1 µM): 36%

GTCGGATTATTTTTTC (sugars k3 d10 k3, PS)
target mRNA inhibition (1 µM): 61%

GTCTAAAGTGCTGGTT (sugars k3 d10 k3, PS)
target mRNA inhibition (1 µM): 39%

GTCTACCACATACGCA (sugars k3 d10 k3, PS)
target mRNA inhibition (1 µM): 66%

GTCTACCTCTAAGTTA (sugars k3 d1 m1 d8 k3, PS)
target mRNA inhibition (1 µM): 15%

GTCTTAAACCTTCCCT (sugars k3 d9 k3 e1, PS)
target mRNA inhibition (1 µM): 50%

GTCTTGATGTAGTGGG (sugars k3 d9 k3 e1, PS)
target mRNA inhibition (1 µM): 70%

GTCTTGATGTAGTGGG (sugars k3 d10 k3, PS)
target mRNA inhibition (0.02 µM): 17% | target mRNA inhibition (0.078 µM): 22% | target mRNA inhibition (0.313 µM): 41% | target mRNA inhibition (1 µM): 67% | target mRNA inhibition (1.25 µM): 72% | target mRNA inhibition (5 µM): 87%

GTCTTGATGTAGTGGG (sugars kkdddddddddkekek, PS)
target mRNA inhibition (1 µM): 18%

GTCTTGGTAATCTCTT (sugars k3 d10 k3, PS)
target mRNA inhibition (1 µM): 37%

GTGAAATCTTGTGTAA (sugars k3 d10 k3, PS)
target mRNA inhibition (1 µM): 44%

GTGCAAGATGATGACA (sugars k3 d10 k3, PS)
target mRNA inhibition (1 µM): 19%

GTGCACTCATTCTGTG (sugars k3 d10 k3, PS)
target mRNA inhibition (1 µM): 6%

GTGCATCTTAAGATAC (sugars k3 d9 k3 e1, PS)
target mRNA inhibition (1 µM): 29%

GTGCCAAACCAATGTT (sugars k3 d10 k3, PS)
target mRNA inhibition (1 µM): 43%

GTGCTGAGAAGATCGG (sugars k3 d10 k3, PS)
target mRNA inhibition (1 µM): 0%

GTGGGATAAACTGTTC (sugars k3 d10 k3, PS)
target mRNA inhibition (1 µM): 52%

GTGGTAACGGTGATCA (sugars k3 d10 k3, PS)
target mRNA inhibition (1 µM): 49%

GTGTAAGCTGAGAGTT (sugars kkdddddddddkekek, PS)
target mRNA inhibition (1 µM): 57%

GTGTAGTCCTAGGGAG (sugars k3 d10 k3, PS)
target mRNA inhibition (1 µM): 67%

GTGTAGTTTGGTGGGC (sugars k3 d10 k3, PS)
target mRNA inhibition (1 µM): 33%

GTTAATGTAGTGTTTA (sugars k3 d10 k3, PS)
target mRNA inhibition (0.02 µM): 7% | target mRNA inhibition (0.078 µM): 25% | target mRNA inhibition (0.313 µM): 45% | target mRNA inhibition (1 µM): 77% | target mRNA inhibition (1.25 µM): 78% | target mRNA inhibition (5 µM): 92%

GTTAGAATAGTCTTCA (sugars k3 d9 k3 e1, PS)
target mRNA inhibition (1 µM): 71%

GTTAGAATAGTCTTCA (sugars k3 d10 k3, PS)
target mRNA inhibition (1 µM): 46%

GTTAGAATAGTCTTCA (sugars kkdddddddddkekek, PS)
target mRNA inhibition (1 µM): 45%

GTTAGTATAGTTATCT (sugars kkdddddddddkekek, PS)
target mRNA inhibition (1 µM): 51%

GTTATCAGAAACTTAT (sugars k3 d10 k3, PS)
target mRNA inhibition (1 µM): 31%

GTTATTGTAGGGATTG (sugars k3 d10 k3, PS)
target mRNA inhibition (1 µM): 69%

GTTAUTCTCTTGACAA (sugars k3 d1 m1 d8 k3, PS)
target mRNA inhibition (1 µM): 29%
